Experimental data as given in patent EP0512042B1, “GLP-1 ANALOGS USEFUL FOR DIABETES TREATMENT” (BUCKLEY, Douglas I., priority 1990, dated 1998).
Like-named read-outs stand apart in the source and are kept apart here. Ends that are not written are not given here.

Assays:
[1] = tested on: RIN 1046-38 cells
Experimental: An additional test for potency of the compounds of the invention measures their ability to stimulate cAMP production in RIN 1046-38 cells. This assay can be conducted as follows:
On day 1, 5 x 10^5 RIN 1046-38 cells (Drucker, D.J., et al., Proc Natl Acad Sci USA (1987) 84:3434-3438) are seeded into individual wells of 6-well dishes with 2.5 mL M199 culture medium. On day 4, cells are re-fed with fresh medium and on day 5 the assay is performed. At this time there are ~2.0-2.5 x 10^6 cells per well. Assays are only performed on cell passage <24.
At time -60 min, monolayers are washed twice with 2.5 mL PBS, and medium is changed to 1.0 mL of DMEM medium plus 4.5 g/l glucose and 0.1% BSA (assay medium). At 0 time, medium is aspirated and fresh assay medium, 1.0 mL, containing test compound is added. Test compound is added in 50 ul volume of PBS plus 0.1% BSA; controls are added in vehicle alone. Incubation is continued for 0 to 60 min.
At termination, conditioned medium and monolayer are harvested to measure both extra- and intracellular cAMP content. For extracellular measurement, medium is removed and centrifuged to remove any cellular debris. For intracellular determination, after medium removal, 1.0 mL of ice cold 95% ethanol is added to monolayer. Cells are collected by scraping, lysed by two cycles of quick freeze/thawing using liquid N2, and cell debris then removed by centrifugation. Aliquots (1/40th well content) of conditioned medium and ethanol cell extract are measured in duplicate for cAMP levels using an RIA kit by the acetylated protocol.
Insulin secretion can also be measured by the method described by Holst, J.J., et al. FEBS Letters (1987) 211:169-174 (supra). Also useful as an assay for insulinotropic effect is the measurement of stimulation of adenylate cyclase in the RIN 1046-38 cell line. Drucker, D.J. et al., Proc Natl Acad Sci USA (1987) 84:3434-3438 (supra).

[2] = resistance to degradation in plasma, assay by RP-HPLC; conditions: incubation in plasma for 60 minutes
Experimental: In all assays, the plasma is prepared by collecting blood into heparinized tubes, placing the tubes on ice and centrifuging at about 3,000 rpm for 10 minutes in a tabletop centrifuge. The separated plasma is stored at 4°C.
In this assay, the analog is added to plasma for various times and recovered similarly to the method described above for radiolabel sequencing analysis. Specifically, the analog at a concentration of 100 nM in RIA buffer is spiked into 1 mL plasma to a final concentration of 1 nM and after incubation in 37°C circulating water bath for various preset times, the reaction is stopped by bringing the plasma to 0.1% (w/v) in bacitracin.
The peptides are then purified by Sep-Pak extraction as described above. The eluates are concentrated to about 1 mL on a Speed-vac, diluted with 1 mL distilled water, frozen at 80°C and lyophilized overnight. The powder is resuspended in 0.5 mL Buffer C (0.1% TFA in water) per mL starting plasma and 0.25 mL are injected on a Hewlett-Packard 1090L liquid chromatograph using an Alltech* C18 column (0.45 x 25 cm; 10 µm particle size) with a Brownlee 2 cm C18 guard column. The extraction is monitored at OD214 throughout the run and the solvent flow rate was 1 mL/minute. A gradient between Buffer C and Buffer D (0.1% TFA in acetonitrile) is set up over a 40 minute run time. The gradient starts at 35% D is held for the first 2 minutes after injection and then increased to 42% D over 24 minutes. The gradient is then increased to 60% D over the next two minutes, held at this level for 2 minutes and returned to 35% D over the next 2 minutes. The %D remains at 35% for the remaining 8 minutes of the run. Fractions are collected at 0.5 minute intervals for the first 30 minutes of each run and dried in a Speed-vac.

Resistance to Degradation [2]	Compound	ED50 nM Duplicate Assays [1] [nM]	ED50 nM Duplicate Assays ([1]; first of the duplicate assays) [nM]	ED50 nM Duplicate Assays ([1]; second of the duplicate assays) [nM]
-	CC[C@H](C)[C@H](NC(=O)[C@H](Cc1ccccc1)NC(=O)[C@H](CCC(=O)O)NC(=O)[C@H](CCCCN)NC(=O)[C@H](C)NC(=O)[C@H](C)NC(=O)[C@H](CCC(N)=O)NC(=O)CNC(=O)[C@H](CCC(=O)O)NC(=O)[C@H](CC(C)C)NC(=O)[C@H](Cc1ccc(O)cc1)NC(=O)[C@H](CO)NC(=O)[C@H](CO)NC(=O)[C@@H](NC(=O)[C@H](CC(=O)O)NC(=O)[C@H](CO)NC(=O)[C@@H](NC(=O)[C@H](Cc1ccccc1)NC(=O)[C@@H](NC(=O)CNC(=O)[C@H](CCC(=O)O)NC(=O)[C@H](C)NC(=O)[C@@H](N)CCCCN)[C@@H](C)O)[C@@H](C)O)C(C)C)C(=O)N[C@@H](C)C(=O)N[C@@H](Cc1c[nH]c2ccccc12)C(=O)N[C@@H](CC(C)C)C(=O)N[C@H](C(=O)N[C@@H](CCCCN)C(=O)NCC(=O)N[C@@H](CCCNC(=N)N)C(=O)NCC(=O)O)C(C)C [(K)^7-GLP-1(7-37)]	350.0		
+	CC[C@H](C)[C@H](NC(=O)[C@H](Cc1ccccc1)NC(=O)[C@H](CCC(=O)O)NC(=O)[C@H](CCCCN)NC(=O)[C@H](C)NC(=O)[C@H](C)NC(=O)[C@H](CCC(N)=O)NC(=O)CNC(=O)[C@H](CCC(=O)O)NC(=O)[C@H](CC(C)C)NC(=O)[C@H](Cc1ccc(O)cc1)NC(=O)[C@H](CO)NC(=O)[C@H](CO)NC(=O)[C@@H](NC(=O)[C@H](CC(=O)O)NC(=O)[C@H](CO)NC(=O)[C@@H](NC(=O)[C@H](Cc1ccccc1)NC(=O)[C@@H](NC(=O)CNC(=O)[C@H](CCC(=O)O)NC(=O)[C@H](C)NC(=O)[C@H](Cc1c[nH]cn1)NC(C)=O)[C@@H](C)O)[C@@H](C)O)C(C)C)C(=O)N[C@@H](C)C(=O)N[C@@H](Cc1c[nH]c2ccccc12)C(=O)N[C@@H](CC(C)C)C(=O)N[C@H](C(=O)N[C@@H](CCCCN)C(=O)NCC(=O)N[C@@H](CCCNC(=N)N)C(=O)NCC(=O)O)C(C)C [(N-acetyl-H) ^7-GLP-1(7-37), (N-acetyl-H)^7-GLP-1(7-37)]	15.5		
+	CC[C@H](C)[C@H](NC(=O)[C@H](Cc1ccccc1)NC(=O)[C@H](CCC(=O)O)NC(=O)[C@H](CCCCN)NC(=O)[C@H](C)NC(=O)[C@H](C)NC(=O)[C@H](CCC(N)=O)NC(=O)CNC(=O)[C@H](CCC(=O)O)NC(=O)[C@H](CC(C)C)NC(=O)[C@H](Cc1ccc(O)cc1)NC(=O)[C@H](CO)NC(=O)[C@H](CO)NC(=O)[C@@H](NC(=O)[C@H](CC(=O)O)NC(=O)[C@H](CO)NC(=O)[C@@H](NC(=O)[C@H](Cc1ccccc1)NC(=O)[C@@H](NC(=O)CNC(=O)[C@H](CCC(=O)O)NC(=O)[C@H](C)NC(=O)[C@H](CCCCN)NC(C)=O)[C@@H](C)O)[C@@H](C)O)C(C)C)C(=O)N[C@@H](C)C(=O)N[C@@H](Cc1c[nH]c2ccccc12)C(=O)N[C@@H](CC(C)C)C(=O)N[C@H](C(=O)N[C@@H](CCCCN)C(=O)NCC(=O)N[C@@H](CCCNC(=N)N)C(=O)NCC(=O)O)C(C)C [(N-acetyl-K)^7 GLP-1 (7-37)]			
+	CC[C@H](C)[C@H](NC(=O)[C@H](Cc1ccccc1)NC(=O)[C@H](CCC(=O)O)NC(=O)[C@H](CCCCN)NC(=O)[C@H](C)NC(=O)[C@H](C)NC(=O)[C@H](CCC(N)=O)NC(=O)CNC(=O)[C@H](CCC(=O)O)NC(=O)[C@H](CC(C)C)NC(=O)[C@H](Cc1ccc(O)cc1)NC(=O)[C@H](CO)NC(=O)[C@H](CO)NC(=O)[C@@H](NC(=O)[C@H](CC(=O)O)NC(=O)[C@H](CO)NC(=O)[C@@H](NC(=O)[C@H](Cc1ccccc1)NC(=O)[C@@H](NC(=O)CNC(=O)[C@H](CCC(=O)O)NC(=O)[C@H](C)NC(=O)[C@H](Cc1c[nH]cn1)NC(C)C)[C@@H](C)O)[C@@H](C)O)C(C)C)C(=O)N[C@@H](C)C(=O)N[C@@H](Cc1c[nH]c2ccccc12)C(=O)N[C@@H](CC(C)C)C(=O)N[C@H](C(=O)N[C@@H](CCCCN)C(=O)NCC(=O)N[C@@H](CCCNC(=N)N)C(=O)NCC(=O)O)C(C)C [(N-isopropyl-H) ^7-GLP-1(7-37), (N-isopropyl-H)^7-GLP-1(7-37)]	15.5		
-	CC[C@H](C)[C@H](NC(=O)[C@H](Cc1ccccc1)NC(=O)[C@H](CCC(=O)O)NC(=O)[C@H](CCCCN)NC(=O)[C@H](C)NC(=O)[C@H](C)NC(=O)[C@H](CCC(N)=O)NC(=O)CNC(=O)[C@H](CCC(=O)O)NC(=O)[C@H](CC(C)C)NC(=O)[C@H](Cc1ccc(O)cc1)NC(=O)[C@H](CO)NC(=O)[C@H](CO)NC(=O)[C@@H](NC(=O)[C@H](CC(=O)O)NC(=O)[C@H](CO)NC(=O)[C@@H](NC(=O)[C@H](Cc1ccccc1)NC(=O)[C@@H](NC(=O)CNC(=O)[C@H](CCC(N)=O)NC(=O)[C@H](C)NC(=O)[C@@H](N)Cc1c[nH]cn1)[C@@H](C)O)[C@@H](C)O)C(C)C)C(=O)N[C@@H](C)C(=O)N[C@@H](Cc1c[nH]c2ccccc12)C(=O)N[C@@H](CC(C)C)C(=O)N[C@H](C(=O)N[C@@H](CCCCN)C(=O)NCC(=O)N[C@@H](CCCNC(=N)N)C(=O)NCC(=O)O)C(C)C [(Q)^9 GLP-1 (7-37)]			
-	CC[C@H](C)[C@H](NC(=O)[C@H](Cc1ccccc1)NC(=O)[C@H](CCC(=O)O)NC(=O)[C@H](CCCCN)NC(=O)[C@H](C)NC(=O)[C@H](C)NC(=O)[C@H](CCC(N)=O)NC(=O)CNC(=O)[C@H](CCC(=O)O)NC(=O)[C@H](CC(C)C)NC(=O)[C@H](Cc1ccc(O)cc1)NC(=O)[C@H](CO)NC(=O)[C@H](CO)NC(=O)[C@@H](NC(=O)[C@H](CC(=O)O)NC(=O)[C@H](CO)NC(=O)[C@@H](NC(=O)[C@H](Cc1ccccc1)NC(=O)[C@@H](NC(=O)CNC(=O)[C@H](CCC(=O)O)NC(=O)[C@H](C)NC(=O)[C@@H](N)Cc1ccc(O)cc1)[C@@H](C)O)[C@@H](C)O)C(C)C)C(=O)N[C@@H](C)C(=O)N[C@@H](Cc1c[nH]c2ccccc12)C(=O)N[C@@H](CC(C)C)C(=O)N[C@H](C(=O)N[C@@H](CCCCN)C(=O)NCC(=O)N[C@@H](CCCNC(=N)N)C(=O)NCC(=O)O)C(C)C [(Y)^7-GLP-1(7-37)]	5.0		
	GLP-1(1-37) [reference compound]		>1000	2900
	GLP-1(3-37) (EFERHAEGTFTSDVSSYLEGQAAKEFIAWLVKGRG; Glucagon-like peptide 1; UniProt P01275 94-128, looked up, fragment) [reference compound]		70	81
	GLP-1(4-37) (FERHAEGTFTSDVSSYLEGQAAKEFIAWLVKGRG; Glucagon-like peptide 1; UniProt P01275 95-128, looked up, fragment) [reference compound]		130	200
	GLP-1(5-37) (ERHAEGTFTSDVSSYLEGQAAKEFIAWLVKGRG; Glucagon-like peptide 1; UniProt P01275 96-128, looked up, fragment) [reference compound]		150	750 to 970
	GLP-1(7-37)		0.16	0.25
-	HSQGTFTSDYSKYLDGQAAKEFIAWLVKGRG [(S)^8(Q)^9(Y)^16(K)^18(D)^21-GLP-1(7-37)]	0.31		
	gastric inhibitory peptide [GIP, reference compound]		10.0	37.5
